The source of these data is PMC10720383, “Acetylcholinesterase Inhibition in Rats and Humans Following Acute Fenitrothion Exposure Predicted by Physiologically Based Kinetic Modeling-Facilitated Quantitative In Vitro to In Vivo Extrapolation” (Environmental Science & Technology, 2023).

For one series, the target named is T1, rat erythrocyte AChE (Rattus norvegicus, UniProt P37136).
T1 construct: tissue Innovative Research Inc. (Novi, MI, USA); host or cells: rat whole blood (Sprague-Dawley), K2EDTA
Put plainly: In vitro AChE inhibition assay with rat blood. The class given is biochemical. How it is done:
(§1) Inhibition of rat and human erythrocyte AChE by FNT and FNO was determined using rat and human blood. Additionally, in vitro AChE inhibition assay was also performed by exposing recombinant human AChE and self-prepared rat erythrocyte AChE to FNT and FNO in a low-protein medium to investigate the potential effect induced by blood matrix. Details are provided in the Supporting Information. […]
(§2) Calculation of kinetic parameters […]
(§3) Protein concentration determination for rat and human plasma […]
(§4) In vitro AChE inhibition assay with rat and human blood
(§5) Inhibition of rat and human erythrocyte AChE by FNT and FNO was determined using the protocol from Kasteel et al. (2021). The final concentrations of FNT and FNO in rat and human blood ranged from 0.05 to 500 µM and from 0.01 to 20 µM, respectively (added from 1000 times concentrated stock solutions in ethanol). Absorbance at 436 nm was measured continuously for 60 min and 10 min to detect […]
(§6) the remaining AChE activity in rat and human blood samples, respectively. Assays were conducted in triplicate, and the data obtained were analyzed in GraphPad Prism (version 5.04, San Diego, CA, USA) to define the concentration resulting in 50% inhibition (IC50). […]

A further series concerns the target T2, human erythrocyte AChE (Homo sapiens, UniProt P22303).
T2 construct: tissue CTIBiotech (Lyon, France); host or cells: human whole peripheral blood, K2EDTA
Put plainly: In vitro AChE inhibition assay with human blood. Format: biochemical. How it is done: as §1, §2, §3, §4, §5, §6

Series [1] has as its target T3, self-prepared rat erythrocyte AChE (Rattus norvegicus, UniProt P37136).
T3 construct: rat erythrocyte AChE was prepared from rat whole; tissue BioIVT (West Sussex, UK); host or cells: rat whole blood (Sprague-Dawley, mixed gender, LiHep); erythrocyte AChE prepared in house
Put plainly: In vitro AChE inhibition assay with self-prepared rat erythrocyte AChE in low-protein medium. The class given is biochemical. How it is done: as §1
(§7) the remaining AChE activity in rat and human blood samples, respectively. Assays were conducted in triplicate, and the data obtained were analyzed in GraphPad Prism (version 5.04, San Diego, CA, USA) to define the concentration resulting in 50% inhibition (IC50).
(§8) In vitro AChE inhibition assay with self-prepared rat erythrocyte AChE and recombinant human […]
(§9) Based on the method described in Zhao et al. (2021), rat erythrocyte AChE was prepared from rat whole blood and the AChE activity was quantified (0.16 U/mL). The inhibition ability of FNT and FNO towards rhAChE and rat erythrocyte AChE was evaluated using a modified protocol (Zhao et al. 2021), and assays were conducted in triplicate. […] After 15 min incubation at 37℃, 150 µL reaction reagent (mixture of ATC at a final concentration of 150 µM and DTNB at a final concentration of 75 µM) was added, and the absorbance at 412 nm was measured continuously for 10 min at 37℃ to test the remaining AChE activity. The AChE activity was expressed as the remaining AChE activity relative to solvent control (100% activity) and positive control (0% activity) based on the equation (Eq S2): […]
(§10) A 412(t10 - t0) Test Compoundwhere is the change of the absorbance at 412 nm between 0 min and 10 min for the test compound; similarly, A 412(t10 - t0) Positive Control is the change of the absorbance for the CPO sample, and A 412(t10 - t0) Solvent Control the change of the absorbance for the 0.2% ethanol sample. […]
(§11) is relevant for the toxicity prediction following acute FNT exposure. The normalized sensitivity coefficients (SCs) were calculated with the equation (Eq S3)

The target in a further series is T4, recombinant human AChE (Homo sapiens, UniProt P22303).
T4 construct: purchased Sigma-Aldrich (St. Louis, MO, USA)
Put plainly: In vitro AChE inhibition assay with recombinant human AChE in low-protein medium. Format: biochemical. Here is the method: as §1, §7, §8, §9, §10, §11

For series [2] the following is noted: assumed default for neutral and acidic compounds, no experimental data; cited from earlier work.

Usually IC50 stands for the concentration that gives 50% inhibition.

Structures are written as SMILES.

T4 sequence (P22303 32-614): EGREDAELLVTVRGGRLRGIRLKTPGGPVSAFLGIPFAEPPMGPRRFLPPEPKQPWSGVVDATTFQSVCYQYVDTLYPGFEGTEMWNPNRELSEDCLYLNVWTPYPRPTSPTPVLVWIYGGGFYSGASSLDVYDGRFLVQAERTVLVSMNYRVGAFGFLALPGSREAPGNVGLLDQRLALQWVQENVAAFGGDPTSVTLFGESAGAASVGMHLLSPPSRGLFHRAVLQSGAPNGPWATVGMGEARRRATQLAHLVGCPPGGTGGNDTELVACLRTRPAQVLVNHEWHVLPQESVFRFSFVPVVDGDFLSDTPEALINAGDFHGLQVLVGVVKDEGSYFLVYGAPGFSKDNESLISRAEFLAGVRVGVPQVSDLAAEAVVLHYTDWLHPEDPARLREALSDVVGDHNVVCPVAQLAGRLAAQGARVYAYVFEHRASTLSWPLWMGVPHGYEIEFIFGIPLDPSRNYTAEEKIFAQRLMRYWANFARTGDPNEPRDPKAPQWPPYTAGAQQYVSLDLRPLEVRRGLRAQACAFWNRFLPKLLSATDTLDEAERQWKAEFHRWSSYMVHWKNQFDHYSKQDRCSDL
T3 sequence (P37136 other isoform, or with tags, fused parts or gaps): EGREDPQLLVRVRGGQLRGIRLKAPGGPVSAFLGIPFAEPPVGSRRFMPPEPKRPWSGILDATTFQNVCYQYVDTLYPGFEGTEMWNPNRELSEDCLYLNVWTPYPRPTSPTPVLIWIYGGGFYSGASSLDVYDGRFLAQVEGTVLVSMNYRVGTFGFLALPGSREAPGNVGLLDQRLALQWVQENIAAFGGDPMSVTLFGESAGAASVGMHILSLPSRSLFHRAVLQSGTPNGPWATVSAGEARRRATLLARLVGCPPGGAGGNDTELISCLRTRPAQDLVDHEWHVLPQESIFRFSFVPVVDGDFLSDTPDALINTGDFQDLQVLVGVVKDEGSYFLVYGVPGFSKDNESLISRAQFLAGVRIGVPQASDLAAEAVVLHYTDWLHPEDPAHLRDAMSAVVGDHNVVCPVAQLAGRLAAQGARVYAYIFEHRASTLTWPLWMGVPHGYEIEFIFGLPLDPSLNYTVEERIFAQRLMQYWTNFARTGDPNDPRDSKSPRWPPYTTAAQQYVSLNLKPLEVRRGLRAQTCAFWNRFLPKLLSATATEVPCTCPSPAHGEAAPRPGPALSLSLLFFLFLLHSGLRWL
T2 sequence (P22303 32-617 isoform P22303-2 limits assumed): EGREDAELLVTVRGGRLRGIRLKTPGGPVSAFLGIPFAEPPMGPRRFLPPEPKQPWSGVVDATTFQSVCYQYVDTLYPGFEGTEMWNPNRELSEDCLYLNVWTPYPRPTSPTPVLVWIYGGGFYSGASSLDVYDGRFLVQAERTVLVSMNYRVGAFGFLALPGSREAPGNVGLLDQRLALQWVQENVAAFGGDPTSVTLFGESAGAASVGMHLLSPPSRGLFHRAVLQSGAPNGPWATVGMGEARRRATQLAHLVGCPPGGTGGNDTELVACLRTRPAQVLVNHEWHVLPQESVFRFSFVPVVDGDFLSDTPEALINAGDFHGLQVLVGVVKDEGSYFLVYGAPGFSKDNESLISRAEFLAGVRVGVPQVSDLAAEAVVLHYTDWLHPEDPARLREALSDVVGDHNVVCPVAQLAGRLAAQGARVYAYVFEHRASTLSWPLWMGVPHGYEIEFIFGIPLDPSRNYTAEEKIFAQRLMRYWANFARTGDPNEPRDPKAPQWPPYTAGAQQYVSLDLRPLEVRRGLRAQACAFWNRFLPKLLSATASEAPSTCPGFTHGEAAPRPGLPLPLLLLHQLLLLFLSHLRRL
T1 sequence (P37136 other isoform, or with tags, fused parts or gaps): as the sequence (P37136 other isoform, or with tags, fused parts or gaps) above

For the compound `COP(=O)(OC)Oc1ccc([N+](=O)[O-])c(C)c1` [FNO, fenitrooxon], the IC50 against rat erythrocyte AChE turned out to be 0.95 µM; against human erythrocyte AChE, 840 nM; in series [1] it was 0.18 µM; on recombinant human AChE, 0.25 µM. The “IC50 fold lower with self-prepared rat erythrocyte AChE than in rat blood” value in series [1] (ratio of IC50 in rat blood to IC50 with self-prepared enzyme) was found to be 5.3 fold. At recombinant human AChE (ratio of IC50 in human blood to IC50 with recombinant enzyme), the “IC50 fold lower with recombinant human AChE than in human blood” value was 3.4 fold. The “blood plasma ratio (BPr)” value in series [2] is on record as 0.55.

For `COP(=S)(OC)Oc1ccc([N+](=O)[O-])c(C)c1` [FNT, O,O-dimethyl O-4-nitro-m-tolyl phosphorothioate], the IC50 is about 500 µM on rat erythrocyte AChE, over 500000 nM against human erythrocyte AChE, 8.24 µM in series [1] and 30.9 µM at recombinant human AChE. In addition, the “blood plasma ratio (BPr)” value in series [2] is 0.55.
